In experiment [1] the target is Wee1 (Homo sapiens, UniProt P30291). The experiment can be described thus: selective binding assay for Wee1. Conditions: in vitro potency.
Experiment [2] concerns the target T1, PKMYT1 (Homo sapiens, UniProt Q99640).
T1 sequence (Q99640 1-499): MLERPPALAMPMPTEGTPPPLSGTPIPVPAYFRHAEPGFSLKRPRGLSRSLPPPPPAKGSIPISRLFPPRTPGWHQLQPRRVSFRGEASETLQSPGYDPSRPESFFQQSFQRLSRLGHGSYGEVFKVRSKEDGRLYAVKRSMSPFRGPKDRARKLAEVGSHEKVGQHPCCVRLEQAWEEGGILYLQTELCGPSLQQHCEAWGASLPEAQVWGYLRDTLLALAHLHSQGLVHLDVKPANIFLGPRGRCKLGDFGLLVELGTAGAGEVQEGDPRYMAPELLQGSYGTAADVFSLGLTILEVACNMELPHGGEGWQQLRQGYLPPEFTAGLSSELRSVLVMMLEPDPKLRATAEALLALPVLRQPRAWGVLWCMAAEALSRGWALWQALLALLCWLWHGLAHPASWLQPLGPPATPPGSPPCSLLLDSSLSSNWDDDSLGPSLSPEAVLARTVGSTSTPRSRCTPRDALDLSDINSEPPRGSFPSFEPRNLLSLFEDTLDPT
As to the kind of experiment: selective binding assay for PKMYT1. Conditions: in vitro potency.

This passage reports IC50 results from patent US20230149415A1, “METHODS AND COMPOSITIONS FOR TREATING CANCER” (Engine Biosciences Pte. Ltd., priority 2020, published 2023).

Wee1, sequence (P30291 whole entry): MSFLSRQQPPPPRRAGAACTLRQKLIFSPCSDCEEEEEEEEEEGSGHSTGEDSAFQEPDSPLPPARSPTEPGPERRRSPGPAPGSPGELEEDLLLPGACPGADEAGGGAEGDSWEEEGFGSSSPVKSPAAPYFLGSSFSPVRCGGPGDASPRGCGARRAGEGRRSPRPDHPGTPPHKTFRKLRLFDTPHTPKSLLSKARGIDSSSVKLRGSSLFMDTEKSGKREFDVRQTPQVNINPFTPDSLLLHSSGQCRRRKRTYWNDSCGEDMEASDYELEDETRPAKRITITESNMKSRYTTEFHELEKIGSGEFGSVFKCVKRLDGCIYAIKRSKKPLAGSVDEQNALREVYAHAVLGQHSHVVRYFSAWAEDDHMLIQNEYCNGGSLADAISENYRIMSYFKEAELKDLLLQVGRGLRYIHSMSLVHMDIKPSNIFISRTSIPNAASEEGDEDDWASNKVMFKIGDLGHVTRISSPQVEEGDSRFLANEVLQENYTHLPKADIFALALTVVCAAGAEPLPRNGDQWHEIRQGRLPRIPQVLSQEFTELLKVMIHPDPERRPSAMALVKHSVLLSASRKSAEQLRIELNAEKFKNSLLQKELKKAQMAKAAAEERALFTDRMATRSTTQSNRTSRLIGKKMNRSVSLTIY

The IC50 is the concentration needed to halve the response being measured. Low readings indicate greater potency in that assay, high ones weaker potency in that assay. `Cn1c(=O)c(-c2c(Cl)cccc2Cl)cc2cnc(Nc3ccc(N4CCOCC4)cc3)nc21` [PD173952, 6-(2,6-dichlorophenyl)-8-methyl-2-((4-morpholinophenyl)amino)pyrido[2,3-d]pyrimidin-7(8H)-one]: the IC50 was found to be 5.3 nM in experiment [1] and 46 nM in experiment [2].

With `CCN(CC)CCOc1ccc(Nc2ncc3cc(-c4c(Cl)cccc4Cl)c(=O)n(C)c3n2)cc1` [PD0166285, 6-(2,6-dichlorophenyl)-2-((4-(2-(diethylamino)ethoxy)phenyl)amino)-8-methylpyrido[2,3-d]pyrimidin-7(8H)-one], the 50% inhibitory concentration (IC50) in experiment [2] worked out at 8.2 nM.
